Drawing on ChEMBL document CHEMBL5316314, “Structure-Activity Relationship Studies of Antimalarial Plasmodium Proteasome Inhibitors─Part II” (J Med Chem, 2023), this text covers Kinetic_solubility for 23 compounds.

Bounds are passed on as bounds.

A short description of the series: Kinetic solubility of compound at pH 6.8. The series is classed as physicochemical. The settings on record: buffer.
Take `CC(=O)N[C@H]1Cc2cccc(c2)Oc2cccc(c2)C[C@@H](C(=O)NCC(F)(F)F)NC(=O)[C@H](CCc2ccccc2)NC1=O`: the Kinetic_solubility is below 1.4 µg/mL. Take `O=C(NCC(F)(F)F)[C@@H]1Cc2cccc(c2)Oc2cccc(c2)C[C@H](N2CCCC2=O)C(=O)N[C@@H](CCc2ccccc2)C(=O)N1`: the Kinetic_solubility stood at 3.8 µg/mL. Then `Cn1cc(CNC(=O)[C@@H]2Cc3cccc(c3)Oc3cccc(c3)C[C@H](N3CCCS3(=O)=O)C(=O)N[C@@H](CCN3CCCCC3)C(=O)N2)cn1`, with above 140 µg/mL; and `O=C(NCC(F)(F)F)[C@@H]1Cc2cccc(c2)Oc2cccc(c2)C[C@H](N2CCCC2=O)C(=O)N[C@@H](CCN2CCC(F)(F)CC2)C(=O)N1`, with above 140 µg/mL; and `CC(=O)N[C@H]1Cc2cccc(c2)Oc2cccc(c2)C[C@@H](C(=O)NCC(F)(F)F)NC(=O)[C@H](CCC(F)(F)F)NC1=O`, with below 1.2 µg/mL. Next, `O=C(NCC(F)(F)F)[C@@H]1Cc2cccc(c2)Oc2cccc(c2)C[C@H](N2CCCC2=O)C(=O)N[C@@H](CCN2CCC[C@@H](F)C2)C(=O)N1`: above 130 µg/mL. Then `COC[C@@H]1NC(=O)[C@@H](NC(C)=O)Cc2cccc(c2)Oc2cccc(c2)C[C@@H](C(=O)NCC(F)(F)F)NC1=O`, with 14 µg/mL. For the compound `C[C@H](NC(=O)[C@@H]1Cc2cccc(c2)Oc2cccc(c2)C[C@H](N2CCCC2=O)C(=O)N[C@@H](CCN2CCCCC2)C(=O)N1)C1CC1`, the Kinetic_solubility was above 120 µg/mL. As for `O=C(NCC(F)(F)F)[C@@H]1Cc2cccc(c2)Oc2cccc(c2)C[C@H](N2CCCC2=O)C(=O)N[C@@H](Cc2ccccc2)C(=O)N1`, the Kinetic_solubility was determined as 22 µg/mL. Then `CN1C(=O)[C@H](CCc2ccccc2)NC(=O)[C@@H](N2CCCC2=O)Cc2cccc(c2)Oc2cccc(c2)C[C@H]1C(=O)NCC(F)(F)F`, with 4.2 µg/mL; and `CC(=O)N[C@H]1Cc2cccc(c2)Oc2cccc(c2)C[C@@H](C(=O)NCC(F)(F)F)NC(=O)[C@H](CC(C)C)NC1=O`, with below 1.4 µg/mL. `O=C(NC1CCCC1)[C@@H]1Cc2cccc(c2)Oc2cccc(c2)C[C@H](N2CCCS2(=O)=O)C(=O)N[C@@H](CCN2CCOCC2)C(=O)N1` gave a Kinetic_solubility above 130 µg/mL. Then `O=C(NCC(F)(F)F)[C@@H]1Cc2cccc(c2)Oc2cccc(c2)C[C@H](N2CCOC2=O)C(=O)N[C@@H](CCN2CCCCC2)C(=O)N1`, with 65 µg/mL; and `Cn1cc(CNC(=O)[C@@H]2Cc3cccc(c3)Oc3cccc(c3)C[C@H](N3CCCC3=O)C(=O)N[C@@H](CCN3CCCCC3)C(=O)N2)cn1`, with above 150 µg/mL; and `O=C(NC1CCCC1)[C@@H]1Cc2cccc(c2)Oc2cccc(c2)C[C@H](N2CCCC2=O)C(=O)N[C@@H](CCN2CCCCC2)C(=O)N1`, with above 140 µg/mL. `O=C(NCC1CC1)[C@@H]1Cc2cccc(c2)Oc2cccc(c2)C[C@H](N2CCCC2=O)C(=O)N[C@@H](CCN2CCCCC2)C(=O)N1` had a Kinetic_solubility above 130 µg/mL. Next, `O=C(NCC1CC1)[C@@H]1Cc2cccc(c2)Oc2cccc(c2)C[C@H](N2CCCC2=O)C(=O)N[C@@H](CCN2CCOCC2)C(=O)N1`: above 130 µg/mL. For `CCC[C@@H]1NC(=O)[C@@H](NC(C)=O)Cc2cccc(c2)Oc2cccc(c2)C[C@@H](C(=O)NCC(F)(F)F)NC1=O`, the Kinetic_solubility is below 1.9 µg/mL. Take `CN1C(=O)[C@H](CCc2ccccc2)N(C)C(=O)[C@@H](N2CCCC2=O)Cc2cccc(c2)Oc2cccc(c2)C[C@H]1C(=O)NCC(F)(F)F`: the Kinetic_solubility came to 4 µg/mL.

Take `CC1(CNC(=O)[C@@H]2Cc3cccc(c3)Oc3cccc(c3)C[C@H](N3CCCC3=O)C(=O)N[C@@H](CCN3CCCCC3)C(=O)N2)CC1`: the Kinetic_solubility is above 130 µg/mL. Next, `Cn1cc(CNC(=O)[C@@H]2Cc3cccc(c3)Oc3cccc(c3)C[C@H](NS(C)(=O)=O)C(=O)N[C@@H](CCN3CCCCC3)C(=O)N2)cn1`: above 140 µg/mL. Consider `C[C@@H](NC(=O)[C@@H]1Cc2cccc(c2)Oc2cccc(c2)C[C@H](N2CCCC2=O)C(=O)N[C@@H](CCN2CCCCC2)C(=O)N1)C1CC1`, for which the Kinetic_solubility was above 140 µg/mL.

Consider `O=C(NCC(F)(F)F)[C@@H]1Cc2cccc(c2)Oc2cccc(c2)C[C@H](N2CCCC2=O)C(=O)N[C@@H](CCN2CCCCC2)C(=O)N1`, for which the Kinetic_solubility is above 140 µg/mL.
